From patent US6583175B2, “Alkylxanthates and use of alkylxanthates in the integrated pest management” (Council of Scientific & Industrial Research, priority 2001, dated 2003)
Converted amounts (≈) assume the structure as drawn. Like-named read-outs stand apart in the source and are kept apart here.

Experiments:
[1] = system: Spodoptera litura; type: in vivo; conditions: topical
[2] = system: Brine shrimp, Artemia salina; conditions: in vivo
[3] = system: Aedes aegypti; type: in vivo; conditions: IV instar larvae, 24 hours
[4] = system: Spodoptera litura; experiment: Antifeedant activity against late third instar of Spodoptera litura (leaf disk, oral feeding); type: in vivo

S=C(OCC1CCCO1)SCSC(=S)OCC1CCCO1 (centres unmarked) [methylene Bis (tetrahydrofurfuryl xanthate)]
Adult emergence: Abnormal adults ([1]; 5 μg/Insect): 22
Adult emergence: Intermediates ([1]; 5 μg/Insect): 0
Adult emergence: Non-emergence ([1]; 5 μg/Insect): 3
Adult emergence: Normal adults ([1]; 5 μg/Insect): 37
Larval mortality (%) ([1]; 5 μg/Insect): 36%
Pupal Formation: Abnormal pupa ([1]; 5 μg/Insect): 6
Pupal Formation: Normal pupa ([1]; 5 μg/Insect): 58
Pupal Formation: Pupal Mortality ([1]; 5 μg/Insect): 5
Adult emergence: Abnormal adults ([1]; 10 μg/Insect): 19
Adult emergence: Intermediates ([1]; 10 μg/Insect): 1
Adult emergence: Non-emergence ([1]; 10 μg/Insect): 2
Adult emergence: Normal adults ([1]; 10 μg/Insect): 28
Larval mortality (%) ([1]; 10 μg/Insect): 46%
Pupal Formation: Abnormal pupa ([1]; 10 μg/Insect): 10
Pupal Formation: Normal pupa ([1]; 10 μg/Insect): 44
Pupal Formation: Pupal Mortality ([1]; 10 μg/Insect): 6
Adult emergence: Abnormal adults ([1]; 20 μg/Insect): 17
Adult emergence: Intermediates ([1]; 20 μg/Insect): 21
Adult emergence: Non-emergence ([1]; 20 μg/Insect): 2
Adult emergence: Normal adults ([1]; 20 μg/Insect): 15
Larval mortality (%) ([1]; 20 μg/Insect): 59%
Pupal Formation: Abnormal pupa ([1]; 20 μg/Insect): 16
Pupal Formation: Normal pupa ([1]; 20 μg/Insect): 25
Pupal Formation: Pupal Mortality ([1]; 20 μg/Insect): 7
Adult emergence: Abnormal adults ([1]; 35 μg/Insect): 11
Adult emergence: Intermediates ([1]; 35 μg/Insect): 2
Adult emergence: Non-emergence ([1]; 35 μg/Insect): 3
Adult emergence: Normal adults ([1]; 35 μg/Insect): 9
Larval mortality (%) ([1]; 35 μg/Insect): 71%
Pupal Formation: Abnormal pupa ([1]; 35 μg/Insect): 10
Pupal Formation: Normal pupa ([1]; 35 μg/Insect): 19
Pupal Formation: Pupal Mortality ([1]; 35 μg/Insect): 7
Adult emergence: Abnormal adults ([1]; 50 μg/Insect): 9
Adult emergence: Intermediates ([1]; 50 μg/Insect): 3
Adult emergence: Non-emergence ([1]; 50 μg/Insect): 1
Adult emergence: Normal adults ([1]; 50 μg/Insect): 4
Larval mortality (%) ([1]; 50 μg/Insect): 80%
Pupal Formation: Abnormal pupa ([1]; 50 μg/Insect): 13
Pupal Formation: Normal pupa ([1]; 50 μg/Insect): 7
Pupal Formation: Pupal Mortality ([1]; 50 μg/Insect): 4
Adult emergence: Abnormal adults ([1]; 75 μg/Insect): 2
Adult emergence: Intermediates ([1]; 75 μg/Insect): 0
Adult emergence: Non-emergence ([1]; 75 μg/Insect): 2
Adult emergence: Normal adults ([1]; 75 μg/Insect): 2
Larval mortality (%) ([1]; 75 μg/Insect): 91%
Pupal Formation: Abnormal pupa ([1]; 75 μg/Insect): 7
Pupal Formation: Normal pupa ([1]; 75 μg/Insect): 2
Pupal Formation: Pupal Mortality ([1]; 75 μg/Insect): 5
Adult emergence: Abnormal adults ([1]; 100 μg/Insect): 1
Adult emergence: Intermediates ([1]; 100 μg/Insect): 0
Adult emergence: Non-emergence ([1]; 100 μg/Insect): 0
Adult emergence: Normal adults ([1]; 100 μg/Insect): 0
Larval mortality (%) ([1]; 100 μg/Insect): 98%
Pupal Formation: Abnormal pupa ([1]; 100 μg/Insect): 2
Pupal Formation: Normal pupa ([1]; 100 μg/Insect): 0
Pupal Formation: Pupal Mortality ([1]; 100 μg/Insect): 1
LC50 ± S.E. [2]: 5.63 ± 0.62 µg/mL (≈ 15.3 µM)
LC50 ± S.E. [3]: 3.77 ± 0.59 µg/mL (≈ 10.2 µM)
A.I. (Anti-feedent Index) ([4]; 12.5 μg/sq. cm.): 8.20
Percent leaf consumption 12 hr ([4]; 12.5 μg/sq. cm.): 48.6%
Percent leaf consumption 24 hr ([4]; 12.5 μg/sq. cm.): 80.6%
A.I. (Anti-feedent Index) ([4]; 25 μg/sq. cm.): 22.42
Percent leaf consumption 12 hr ([4]; 25 μg/sq. cm.): 31.5%
Percent leaf consumption 24 hr ([4]; 25 μg/sq. cm.): 60.2%
A.I. (Anti-feedent Index) ([4]; 35 μg/sq. cm.): 33.52
Percent leaf consumption 12 hr ([4]; 35 μg/sq. cm.): 25.9%
Percent leaf consumption 24 hr ([4]; 35 μg/sq. cm.): 47.3%
A.I. (Anti-feedent Index) ([4]; 50 μg/sq. cm.): 35.23
Percent leaf consumption 12 hr ([4]; 50 μg/sq. cm.): 22.1%
Percent leaf consumption 24 hr ([4]; 50 μg/sq. cm.): 45.5%
Concentration required for 50% leaf protection EC50 ± S.E. ([4]; late third instar): 37.21 ± 9.67 μg/cm^2
